Measured values taken from patent publication US20210038587A1, “METHODS AND COMPOSITIONS FOR TREATING NON-ERK MAPK PATHWAY INHIBITOR-RESISTANT CANCERS” (BIOMED VALLEY DISCOVERIES, INC., priority 2013, published 2021).
≈ marks a conversion by molar mass, not a printed value. Where “and” joins values, the source holds several entries; their conditions need not be identical. Identical values can stand only once. Like-named read-outs stand apart in the source and are kept apart here.

Key:
JNK3 = JNK3 (Homo sapiens, UniProt P53779); assay: Kinase counter-screen, Ki; format: biochemical
JNK3, sequence (P53779 whole entry, species assumed): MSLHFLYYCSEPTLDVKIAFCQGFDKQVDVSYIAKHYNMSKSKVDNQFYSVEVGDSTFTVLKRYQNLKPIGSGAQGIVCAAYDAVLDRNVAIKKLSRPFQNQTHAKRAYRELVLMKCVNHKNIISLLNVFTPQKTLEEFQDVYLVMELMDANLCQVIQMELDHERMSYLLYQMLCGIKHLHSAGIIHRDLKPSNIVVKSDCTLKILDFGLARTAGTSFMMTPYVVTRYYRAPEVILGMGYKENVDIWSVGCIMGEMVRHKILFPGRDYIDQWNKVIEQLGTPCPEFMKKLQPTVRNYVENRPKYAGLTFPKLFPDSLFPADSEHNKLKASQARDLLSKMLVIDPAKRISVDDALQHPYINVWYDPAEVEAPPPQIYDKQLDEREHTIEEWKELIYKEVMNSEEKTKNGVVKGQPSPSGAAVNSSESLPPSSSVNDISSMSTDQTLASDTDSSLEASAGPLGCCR
Source text: (§1) The ATP concentrations were approximately equal to the Km in all assays.

P38γ = P38γ (Homo sapiens, UniProt P53778); assay: Kinase counter-screen, Ki; format: biochemical; conditions: apparent Ki
P38γ, sequence (P53778 whole entry): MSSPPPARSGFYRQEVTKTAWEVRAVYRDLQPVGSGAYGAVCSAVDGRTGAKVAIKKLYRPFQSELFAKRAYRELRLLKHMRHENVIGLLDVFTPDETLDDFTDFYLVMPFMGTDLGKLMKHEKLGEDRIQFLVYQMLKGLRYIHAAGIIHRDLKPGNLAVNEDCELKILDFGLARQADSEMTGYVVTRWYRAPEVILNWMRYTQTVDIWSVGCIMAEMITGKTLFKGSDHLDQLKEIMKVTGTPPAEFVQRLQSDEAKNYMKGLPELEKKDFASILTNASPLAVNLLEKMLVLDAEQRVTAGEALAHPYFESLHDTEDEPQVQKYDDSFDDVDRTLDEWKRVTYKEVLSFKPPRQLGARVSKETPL
Source text: as §1

RSK3 = RSK3 (Homo sapiens, UniProt Q15349); assay: Kinase counter-screen, Ki; format: biochemical
RSK3, sequence (Q15349 whole entry, species assumed): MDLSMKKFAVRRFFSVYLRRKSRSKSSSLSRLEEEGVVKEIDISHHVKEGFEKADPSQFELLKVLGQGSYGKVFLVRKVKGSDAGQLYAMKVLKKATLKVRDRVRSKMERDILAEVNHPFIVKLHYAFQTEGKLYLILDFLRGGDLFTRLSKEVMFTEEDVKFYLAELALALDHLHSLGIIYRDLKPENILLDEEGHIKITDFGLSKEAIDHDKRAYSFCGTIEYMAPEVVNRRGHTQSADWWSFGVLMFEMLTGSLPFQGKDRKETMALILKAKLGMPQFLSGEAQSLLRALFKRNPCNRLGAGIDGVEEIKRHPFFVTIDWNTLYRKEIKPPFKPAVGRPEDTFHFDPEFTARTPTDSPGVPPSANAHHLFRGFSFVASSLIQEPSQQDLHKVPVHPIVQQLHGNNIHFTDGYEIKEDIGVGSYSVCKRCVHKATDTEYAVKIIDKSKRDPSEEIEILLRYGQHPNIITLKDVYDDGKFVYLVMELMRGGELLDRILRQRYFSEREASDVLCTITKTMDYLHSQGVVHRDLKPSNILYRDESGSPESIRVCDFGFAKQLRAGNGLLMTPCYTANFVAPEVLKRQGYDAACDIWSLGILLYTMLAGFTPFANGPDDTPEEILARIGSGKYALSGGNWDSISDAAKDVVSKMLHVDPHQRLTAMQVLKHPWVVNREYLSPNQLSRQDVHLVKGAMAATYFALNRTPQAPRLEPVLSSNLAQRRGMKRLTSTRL
Source text: as §1

upstaged A375 xenografts = assay: Upstaged A375 xenograft model, BVD-523 in combination with dabrafenib; format: in vivo, mice; conditions: 100 mg/kg BID
Protocol: Combination dosing was stopped on Day 20 to monitor for tumor regrowth. Animals were monitored individually and euthanized when each tumor reached an endpoint volume of 2000 mm^3, or the final day (Day 45), whichever came first, and median time to endpoint (TTE) calculated. The combination was also evaluated in an upstaged A375 model where larger tumors in the range 228-1008 mm^3 were evaluated. Here, mice were randomized into 1 group (Group 1) of 14 and 4 groups (Groups 2-5) of 20. […] Tumors were measured twice weekly. Combination dosing was stopped on Day 42 to monitor for tumor regrowth through study end (Day 60). Treatment outcome was determined from % TGD, defined as the percent increase in median TTE for treated versus control mice, with differences between groups analyzed via log rank survival analysis. […] Mice were also monitored for CR and PR responses. Animals with a CR at the end of the study were additionally classified as TFS.

[1] = system: patient-derived xenograft (AT052C); assay: Patient-derived xenograft from vemurafenib-refractory BRAFV600E melanoma; format: in vivo, mice; conditions: 100 mg/kg BID, 28 days
Source text: Tumor fragments were harvested from host animals and implanted into immune-deficient mice.

[2] = system: PMA-stimulated RSK1 phosphorylation; assay: Ex vivo inhibition of PMA-stimulated RSK1 phosphorylation in human whole blood; format: cell-based
[3] = Phase I study: pharmacokinetic analysis; format: in vivo, human; conditions: for AUC(0-t) / Cmax: plasma
Protocol: Blood samples were collected prior to dosing, and then at 0.5 (±5 min), 1 (±5 min), 2 (±10 min), 4 (±10 min), 6 (±10 min), 8 (±10 min), and 12 (±2 hr) hours on Day 1 (Visit 2; baseline/initiation of treatment) and Day 15 (Visit 4; at steady state) after the morning dose. On Day 22, prior to dose administration, a final blood sample was collected for pharmacokinetic analyses. Urine samples were collected predose and at the 1- to 6-hour and 6- to 12-±2-hour intervals postdose on Days 1 and 15. […] Standard pharmacokinetic parameters were obtained using Phoenix WinNonlin (Pharsight) with a noncompartmental method. Relationship between dose and exposure was calculated using standard least-squares regression analysis.

advanced solid tumors = assay: Phase I study: antitumor response (RECIST v1.1, 18F-FDG-PET); format: in vivo, human
Protocol: For measurement of antitumor response, tumor measurements based on physical examination occurred at baseline and on the first day of each treatment cycle. CT and other assessments were made every 2 to 3 cycles. Findings were assessed in accordance with RECIST v1.1: CR was defined as disappearance of all target lesions; PR was defined as a ≥30% decrease in the sum of the longest diameters of target lesions, taking baseline measurements as reference; stable disease was defined as being of neither sufficient shrinkage to qualify for PR nor sufficient increase to qualify for progressive disease, taking as reference the baseline measurement.

Colo205 xenografts = assay: BVD-523 activity in Colo205 xenografts
RKO colorectal cell line = assay: Western blot of nuclear and cytoplasmic fractions; format: cell-based; conditions: versus DMSO
Protocol: For Western blot analysis, A375 cells were seeded onto 10 cm dishes in Dulbecco's Modified Eagle's Medium plus 10% (v/v) FBS. Cells were allowed to adhere overnight prior to the addition of test compound or vehicle. For experiments with RKO cells, these cells were seeded in 6-well plates or 10 cm dishes with McCoy's 5A+10% (v/v) FBS. Cells were then treated at the desired concentration and duration. Cells were harvested by trypsinization, pelleted, and snap frozen. Lysates were prepared with RIPA buffer supplemented with protease and phosphatase inhibitor cocktails (Roche), clarified by centrifugation at 11,000 rpm for 10 minutes, and quantitated by bicinchoninic acid assay. Samples were resolved by SDS-PAGE, blotted onto polyvinylidene difluoride membranes, and probed using antibodies (i.e., pRB [Ser780], cat. no. 9307; CCND1, cat. no. ab6152; BCL-xL, cat. no. 2762; PARP, cat. no. 9542; DUSP6, cat. no. 3058S) directed to the indicated targets.
In resting cells, ERK1/2 localizes to the cytoplasm, and once stimulated pERK1/2 migrates to target organelles, particularly the nucleus where transcriptional targets are activated (Wainstein et al. 2016). In DMSO-treated control cells, pERK1/2 is evident in both nuclear and cytoplasmic fractions, which is likely reflective of MAPK pathway activity due to the presence of BRAF^V600E in this cell line.

CC(C)Nc1cc(-c2c[nH]c(C(=O)N[C@H](CO)c3cccc(Cl)c3)c2)c(Cl)cn1 [BVD-523]
Ki (JNK3): 1300 nM
Ki (P38γ): 450 nM
Ki (RSK3): 450 nM
PRs (upstaged A375 xenografts): 2
TGI [1]: 78%
EC50 ([2]; Homo sapiens, human whole blood (HWB), read-out: EC50 based on the ex vivo whole blood assay): ~0.2 µg/mL (≈ 0.462 µM)
inhibition at 10 µM ([2]; Homo sapiens, read-out: maximum inhibition of RSK phosphorylation): 75.8 ± 2.7%
IC50 ([2]; Homo sapiens, whole blood from healthy volunteers, read-out: mean IC50, PMA-stimulated RSK phosphorylation): 461 ± 20 nM
EC50 based on the ex vivo whole blood assay ([2]; human whole blood (HWB)): 200 ng/mL (≈ 0.462 µM)
urinary excretion within 12 hours postdose ([3]; first dose and steady state, all dose levels): < 0.2 % of the dose
CL renal ([3]; human, plasma and urine, oral, n≥3, read-out: mean renal clearance values): 0.248 to 0.5 mL/min
AUC(0-t) ([3]; human, oral, 10 mg, 10 mg BID, Day 1, read-out: AUC0-12): 220 ng·h/mL
Cmax ([3]; human, oral, 10 mg, 10 mg BID, Day 1, read-out: Cmax): 48.2 ng/mL
AUC(0-t) ([3]; human, oral, 10 mg, 10 mg BID, Day 15, read-out: AUC0-12): 234 ng·h/mL
Cmax ([3]; human, oral, 10 mg, 10 mg BID, Day 15, read-out: Cmax): 45.7 ng/mL
AUC(0-t) ([3]; human, oral, 20 mg, 20 mg BID, Day 1, read-out: AUC0-12): 91.7 ng·h/mL
Cmax ([3]; human, oral, 20 mg, 20 mg BID, Day 1, read-out: Cmax): 14.9 ng/mL
AUC(0-t) ([3]; human, oral, 20 mg, 20 mg BID, Day 15, read-out: AUC0-12): 98.7 ng·h/mL
Cmax ([3]; human, oral, 20 mg, 20 mg BID, Day 15, read-out: Cmax): 15.8 ng/mL
AUC(0-t) ([3]; human, oral, 40 mg, 40 mg BID, Day 1, read-out: AUC0-12): 614 ng·h/mL
Cmax ([3]; human, oral, 40 mg, 40 mg BID, Day 1, read-out: Cmax): 100 ng/mL
AUC(0-t) ([3]; human, oral, 40 mg, 40 mg BID, Day 15, read-out: AUC0-12): 999 ng·h/mL
Cmax ([3]; human, oral, 40 mg, 40 mg BID, Day 15, read-out: Cmax): 191 ng/mL
AUC(0-t) ([3]; human, oral, 150 mg, 150 mg BID, Day 1, read-out: AUC0-12): 817 ng·h/mL
Cmax ([3]; human, oral, 150 mg, 150 mg BID, Day 1, read-out: Cmax): 133 ng/mL
AUC(0-t) ([3]; human, oral, 150 mg, 150 mg BID, Day 15, read-out: AUC0-12): 2770 ng·h/mL
Cmax ([3]; human, oral, 150 mg, 150 mg BID, Day 15, read-out: Cmax): 326 ng/mL
AUC(0-t) ([3]; human, oral, 300 mg, 300 mg BID, Day 1, read-out: AUC0-12 ± SD): 4110 ± 1140 ng·h/mL
Cmax ([3]; human, oral, 300 mg, 300 mg BID, Day 1, read-out: Cmax ± SD): 765 ± 234 ng/mL
AUC(0-t) ([3]; human, oral, 300 mg, 300 mg BID, Day 15, read-out: AUC0-12 ± SD): 4460 ± 2460 ng·h/mL
Cmax ([3]; human, oral, 300 mg, 300 mg BID, Day 15, read-out: Cmax ± SD): 586 ± 257 ng/mL
AUC(0-t) ([3]; human, oral, 600 mg, 600 mg BID, Day 1, read-out: AUC0-12 ± SD): 2750 ± 1740 ng·h/mL
AUC(0-t) ([3]; human, oral, 600 mg, 600 mg BID, Day 15, read-out: AUC0-12 ± SD): 24400 ± 16200 ng·h/mL
Cmax ([3]; human, oral, 600 mg, 600 mg BID, Day 15, read-out: Cmax ± SD): 2750 ± 170 ng/mL
AUC(0-t) ([3]; human, oral, 750 mg, 750 mg BID, Day 1, read-out: AUC0-12 ± SD): 10700 ng·h/mL
Cmax ([3]; human, oral, 750 mg, 750 mg BID, Day 1, read-out: Cmax ± SD): 1450 ± 539 ng/mL
AUC(0-t) ([3]; human, oral, 750 mg, 750 mg BID, Day 15, read-out: AUC0-12 ± SD): 23300 ng·h/mL
Cmax ([3]; human, oral, 750 mg, 750 mg BID, Day 15, read-out: Cmax ± SD): 2290 ng/mL
AUC(0-t) ([3]; human, oral, 750 mg, Day 15, reduced from 750 mg to 450 mg/dose, read-out: AUC0-12, individual subject): 10700 ng·h/mL
Cmax ([3]; human, oral, 750 mg, Day 15, reduced from 750 mg to 450 mg/dose, read-out: Cmax, individual subject): 1300 ng/mL
AUC(0-t) ([3]; human, oral, 900 mg, 900 mg BID, Day 1, read-out: AUC0-12 ± SD): 10800 ng·h/mL
Cmax ([3]; human, oral, 900 mg, 900 mg BID, Day 1, read-out: Cmax ± SD): 1430 ± 1010 ng/mL
AUC(0-t) ([3]; human, oral, 900 mg, 900 mg BID, Day 15, read-out: AUC0-12 ± SD): 15900 ng·h/mL
Cmax ([3]; human, oral, 900 mg, 900 mg BID, Day 15, read-out: Cmax ± SD): 1720 ± 328 ng/mL
dose-exposure relationship (Cmax and AUC) ([3]; up to 600 mg BID): linear and dose proportional
durable partial response, duration of dosing (advanced solid tumors; 600 mg BID, progressed on prior vemurafenib and dabrafenib/trametinib): > 300 days
partial response (advanced solid tumors; 25 evaluable patients, all melanoma with BRAF^V600 mutations): 3 patients
progressive disease at first evaluation (advanced solid tumors; in vivo): 4 patients
stable disease (advanced solid tumors; in vivo): 18 patients
stable disease for more than 3 months (additional patients) (advanced solid tumors; in vivo): 6 patients
stable disease for more than 6 months (advanced solid tumors; in vivo): 6 patients
reduction in the sum of target lesions from baseline (advanced solid tumors; other partial responders): 47.0% and 33.6%
reduction in the sum of target lesions from baseline (advanced solid tumors; partial responder at 450 mg BID): ~70%
duration of partial response (advanced solid tumors; patient intolerant to other BRAF/MEK inhibitors, ongoing by data cutoff): ≥ 313 days
duration of partial response (advanced solid tumors; patient refractory to prior BRAF/MEK inhibitors, ongoing): ≥ 294 days
T/C (Colo205 xenografts; 25 mg/kg BID): 25.2%
mean tumor regression T/Ti (Colo205 xenografts; 50 mg/kg BID): −48.2%
mean tumor regression T/Ti (Colo205 xenografts; 75 mg/kg BID): −77.2%
mean tumor regression T/Ti (Colo205 xenografts; 100 mg/kg BID): −92.3%

O=C(Nc1ccc2[nH]nc(-c3ccncc3)c2c1)[C@@H]1CCN(CC(=O)N2CCN(c3ccc(-c4ncccn4)cc3)CC2)C1 [SCH772984]
pERK1/2 in nuclear and cytoplasmic fractions (RKO colorectal cell line): inhibited phosphorylation of ERK1/2 and RSK
